From US20140024803A1, “18FDG MULTIMERIC POSITRON EMISSION TOMOGRAPHY IMAGING AGENTS” (priority 2012, published 2014)

Test: In vitro calcium salt specificity experiment (PET/CT of crystals after incubation and washing)
Assay type: binding
Settings: 5 mg/mL calcium salts (HA, phosphate, oxalate, carbonate, pyrophosphate), 10 μCi in 100 μL PBS, 20 min at RT, washed, 10 minute static PET/CT scan
Protocol: To determine the selectivity and specificity of ^18FDG amino-Ad-Pam-Monomer for hydroxyapatite (HA), a major mineral component of calcifications and normal bone, over other calcium salts, in the present invention an incubation of equal quantity each of Ca-hydroxyapatite (HA), Ca-pyrophosphate (CPP), Ca-phosphate (CP), Ca-oxalate (CO), and Ca-carbonate (CC) salts with ^18FDG amino-Ad-Pam-Monomer in phosphate buffered saline (PBS) is performed. PET/CT images are acquired after incubation and washing of crystals, ^18FDG amino-Ad-Pam-Monomer has about 5-fold specificity for HA over other calcium salts found in the body and permits PET/CT detection of HA with high sensitivity. However, Na^18F, the Food and Drug Administration approved imaging agent for bone scintigraphy, permits about 1.5 fold specificity for HA over other calcium salts.
In a 96-well plate, 5 mg/mL of hydroxyapatite (HA) or the phosphate, oxalate, carbonate, and pyrophosphate salts of calcium are separately incubated with ^18FDG amino-Ad-Pam-Monomer (10 μCi) in 100 μL PBS for 20 min with continuous vortexing at RT. Crystals are washed 4 times with a 100-fold excess of PBS, centrifuged and mounted on PET/CT and 10 minute static scans are acquired. Similarly, calcium salt binding study is performed with Na^18F in a same condition.

[18F-].[Na+] [Na^18F]
specificity for HA over other calcium salts: about 1.5 fold
